Laboratory results from PubChem BioAssay AID328 (DTP/NCI, 2004).
“And” between values parts separate entries of the source, which are not always exact repeats. Equal entries are not always repeated. Toxic doses and inconclusive results are not listed. How the source made its calls: active means survival T/C of 150% or more; inactive means T/C below 125% in these data.

System: BDF1 mice, P388 leukemia ip, median survival T/C
Experiment: NCI In Vivo Anticancer Drug Screen. Data for tumor model P388 Leukemia (intraperitoneal) in B6D2F1 (BDF1) mice
Conditions: endpoint: median survival time, higher = longer survival
Outline: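 Vehicle-dosed animals serve as the reference; survival of compound-dosed, tumour-implanted mice is divided by it.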

[1] = dose: 25.0 mg/kg/injection, schedule: Q04DX003 (ip), vehicle: saline
[2] = dose: 50.0 mg/kg/injection, schedule: Q04DX003 (ip), vehicle: saline
[3] = dose: 50.0 mg/kg/injection, schedule: Q01DX009 (ip), vehicle: saline with Tween-80
[4] = dose: 100.0 mg/kg/injection, schedule: Q01DX009 (ip), vehicle: saline with Tween-80
[5] = dose: 200.0 mg/kg/injection, schedule: Q01DX009 (ip), vehicle: saline with Tween-80

Measured: T/C

COc1ccc(-c2csc(=[N+]3CCCCC3)s2)cc1
inactive: dose: 12.5 mg/kg/injection, schedule: Q04DX003 (ip), vehicle: saline 105 % of control | [1] 122 % of control | [2] 87 % of control

O=C1/C(=C\c2ccc(Cl)cc2Cl)SC(=S)N1Cc1ccco1
inactive: [3] 97 % of control | [4] 91 % of control | [5] 88 % of control

CN(C)P(=S)(N(C)C)N1CCC1
inactive: [3] 96 % of control | [4] 90 % of control | [5] 109 % of control

Nc1ccc2ccccc2c1N=Nc1ccc(C(O)C(N)CO)cc1 (stereo unspecified)
inactive: dose: 6.25 mg/kg/injection, schedule: Q01DX009 (ip), vehicle: saline sonified 100 % of control | dose: 12.5 mg/kg/injection, schedule: Q01DX009 (ip), vehicle: saline sonified 112 % of control | dose: 25.0 mg/kg/injection, schedule: Q01DX009 (ip), vehicle: saline sonified 100 % of control

COc1cc2c(c(OC)c1OC)-c1cc3c(cc1C(=O)[C@@H]1COC(=O)[C@@H]21)OCO3
inactive: dose: 1.3 mg/kg/injection, schedule: Q01DX009 (ip), vehicle: saline 109 % of control | dose: 2.0 mg/kg/injection, schedule: Q01DX009 (ip), vehicle: saline 95 % of control | dose: 3.0 mg/kg/injection, schedule: Q01DX009 (ip), vehicle: saline 95 % of control | dose: 5.3 mg/kg/injection, schedule: Q01DX009 (ip), vehicle: saline with Tween-80 100 % of control | dose: 8.0 mg/kg/injection, schedule: Q01DX009 (ip), vehicle: saline with Tween-80 100 % of control | dose: 12.0 mg/kg/injection, schedule: Q01DX009 (ip), vehicle: saline with Tween-80 95 % of control | dose: 21.4 mg/kg/injection, schedule: Q01DX009 (ip), vehicle: saline 105 % of control | dose: 32.0 mg/kg/injection, schedule: Q01DX009 (ip), vehicle: saline 110 % of control | dose: 48.0 mg/kg/injection, schedule: Q01DX009 (ip), vehicle: saline 110 % of control

O=C(O)c1ccccc1C(=O)OC1=CS(=O)(=O)CC1
inactive: dose: 50.0 mg/kg/injection, schedule: Q01DX001 (ip), vehicle: saline with Tween-80 93 % of control | dose: 100.0 mg/kg/injection, schedule: Q01DX001 (ip), vehicle: saline with Tween-80 96 % of control | dose: 200.0 mg/kg/injection, schedule: Q01DX001 (ip), vehicle: saline with Tween-80 97 % of control | dose: 400.0 mg/kg/injection, schedule: Q01DX001 (ip), vehicle: saline with Tween-80 110 % of control

CCN(CC)S(=O)(=O)c1cccc(C(O)CC(O)(C(F)(F)F)C(F)(F)F)c1 (stereo unspecified)
inactive: dose: 100.0 mg/kg/injection, schedule: Q04DX003 (ip), vehicle: other 95 % of control | dose: 200.0 mg/kg/injection, schedule: Q04DX003 (ip), vehicle: other 86 % of control | dose: 400.0 mg/kg/injection, schedule: Q04DX003 (ip), vehicle: other 90 % of control

O=S1(=O)CCN(Cc2ccccc2)CC1
inactive: dose: 50.0 mg/kg/injection, schedule: Q01DX009 (ip), vehicle: Klucel (hydroxypropylcellulose) (HPC) 96 % of control | dose: 100.0 mg/kg/injection, schedule: Q01DX009 (ip), vehicle: Klucel (hydroxypropylcellulose) (HPC) 96 % of control | dose: 200.0 mg/kg/injection, schedule: Q01DX009 (ip), vehicle: Klucel (hydroxypropylcellulose) (HPC) 91 % of control

O=C(Nc1ccccc1)c1ccc(C(F)(F)F)cc1O
inactive: dose: 16.5 mg/kg/injection, schedule: Q01DX009 (ip), vehicle: saline 99 % of control | dose: 25.0 mg/kg/injection, schedule: Q01DX009 (ip), vehicle: saline 93 % of control | dose: 35.0 mg/kg/injection, schedule: Q01DX009 (ip), vehicle: saline 112 % of control | dose: 100.0 mg/kg/injection, schedule: Q01DX009 (ip), vehicle: saline 108 % of control | dose: 200.0 mg/kg/injection, schedule: Q01DX009 (ip), vehicle: saline 95 % of control

C[n+]1ccc(/C=N/O)cc1
inactive: [1] 105 % of control | [2] 103 % of control | dose: 100.0 mg/kg/injection, schedule: Q04DX003 (ip), vehicle: saline 98 % of control | dose: 200.0 mg/kg/injection, schedule: Q04DX003 (ip), vehicle: saline 89 % of control and 100 % of control | dose: 400.0 mg/kg/injection, schedule: Q04DX003 (ip), vehicle: saline 86 % of control
